# Results: patent US11440905B2, “Biheterocyclic compound” (SUMITOMO PHARMA CO., LTD., priority 2016, dated 2022)
# Structures can show the parent of a compound that is named as a salt.
# Key:
# [1] = molecular target: T1, mouse Sema3A binding to CHO cells stably-expressing mouse neuropilin (Mus musculus, UniProt O08665); test: Inhibitory activity for the neuropilin-binding activity caused by Sema3A (Test 2); conditions: 1 h, AP-Sema3A, read-out: residual ratio (%) of avidity (Sema3A-neuropilin binding); for remaining activity at 100 µM: 100 μM test compound, smaller value = more potent binding inhibition
# T1 construct: host or cells: CHO cells stably expressing the neuropilin partner
# T1 sequence (O08665 21-772): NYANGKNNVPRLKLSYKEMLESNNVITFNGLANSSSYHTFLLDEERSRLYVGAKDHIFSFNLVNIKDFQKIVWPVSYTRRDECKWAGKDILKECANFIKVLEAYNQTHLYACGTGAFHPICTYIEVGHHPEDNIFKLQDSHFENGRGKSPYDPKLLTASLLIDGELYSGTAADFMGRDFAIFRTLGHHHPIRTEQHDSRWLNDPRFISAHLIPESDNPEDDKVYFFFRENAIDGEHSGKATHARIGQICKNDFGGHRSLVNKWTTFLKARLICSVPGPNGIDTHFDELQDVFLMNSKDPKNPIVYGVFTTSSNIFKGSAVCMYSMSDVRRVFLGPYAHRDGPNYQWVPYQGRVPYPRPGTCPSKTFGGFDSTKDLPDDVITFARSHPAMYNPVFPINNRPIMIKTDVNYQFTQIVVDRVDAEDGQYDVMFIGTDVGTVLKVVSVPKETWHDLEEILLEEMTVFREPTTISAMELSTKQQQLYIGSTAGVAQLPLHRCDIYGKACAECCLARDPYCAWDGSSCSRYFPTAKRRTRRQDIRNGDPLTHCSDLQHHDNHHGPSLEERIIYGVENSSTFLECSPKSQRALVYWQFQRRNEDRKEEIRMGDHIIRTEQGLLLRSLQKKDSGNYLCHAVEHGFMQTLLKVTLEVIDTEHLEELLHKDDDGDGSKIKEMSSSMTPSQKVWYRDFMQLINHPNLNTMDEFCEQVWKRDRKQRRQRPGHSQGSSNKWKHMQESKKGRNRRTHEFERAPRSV
# Procedure: (Test 2) Inhibitory Activity for the Neuropilin-Binding Activity Caused by Sema3A
# To each well of 96 well-plate (IWAKI) was seeded CHO cells stably-expressing mouse neuropilin, the cells were cultivated in F12 medium (10% fetal bovine serum, 100 units/mL penicillin, and 100 μg/mL streptomycin) under the condition of 5% CO2 and 37° C. for 18 hours. And then, the culture medium was removed, and mouse Sema3A which included each test compound and alkaline phosphatase (AP) in various concentrations was added thereto, and the culture was reacted at room temperature for more one hour. Then, the reaction solution was removed, the residual cells were washed with HBSS solution (0.25% BSA) and dissolved in a solution (10 mM Tris including 1% Triton X-100) at 65° C. for one hour, and the AP activity thereof was measured.
# [2] = system: dry eye-model rat (exorbital lacrimal gland excised); test: Drug evaluation for corneal disorder in dry eye-model rat (Test 3); type: in vivo; conditions: eye drop 1 μL per shot, 6 times per day, 4 weeks
# Procedure: (Test 3) Drug Evaluation for Corneal Disorder in Dry Eye-Model Rat
# A model rat whose exorbital lacrimal gland is excised is generally used as a model for evaluating the drug efficacy for corneal disorder caused by dry eye. As for corneal disorder of the rat, hyaluronic acid (HA) and diquafosol sodium (DQS) which are existing drugs, and the present compound (Example 3) were administered to the rat, and each efficacy thereof was evaluated.
# Male SD rat was anesthetized with inhalational isoflurane, and the exorbital lacrimal gland thereof was excised to prepare a dry eye-model rat (the conditions to prepare the dry eye-model rat can be changed as necessary, for example, by combining the excision of exorbital lacrimal gland with the medication of streptozotocin or the like). […]
# The site of corneal disorder was stained with a fluorescein (FITC) solution, and the extent of the disorder was evaluated with the score gained from the following method. […]
# The statistical significance for the drug effect was evaluated by nonparametric Tukey's multiple comparison test, in which the result of each test group was compared with that of the control (intact) group which was not operated by excising exorbital lacrimal gland.
# [3] = system: dry eye-model rat associated with the dysfunction of corneal nerves; test: Drug evaluation for the dysfunction of corneal nerves in dry eye rat model (Test 4); type: in vivo; conditions: lacrimal gland excision plus streptozotocin 55 mg/kg i.p.; eye drop 1 μL per shot, 6 times per day, 4 weeks; 0.3% HA, 3% DQS, 0.1% Example 3
# Procedure: Drug Evaluation for the Dysfunction of Corneal Nerves in Dry Eye Rat Model
# Male SD rat was anesthetized with inhalational isoflurane. The exorbital lacrimal gland thereof was excised, and at the same day, streptozotocin was administered intraperitoneally to the rat (55 mg/kg) to prepare a dry eye-model rat associated with the dysfunction of corneal nerves. Several weeks after the operation, 0.3% HA ophthalmic solution, 3% DQS ophthalmic solution, and 0.1% the ophthalmic solution of the present compound (Example 3) were administered to the rat in an awareness at 1 μL per shot, 6 times per day, for 4 weeks.
# The cornea of the rat was softly held by hand. The drug effect for the dysfunction of corneal nerves was evaluated through blink reflex by contacting the cornea with the nylon filament of cochet-bonnet corneal esthesiometer. First, the tip of the nylon filament (length: 60 mm, diameter: 0.12 mm) was made to almost-vertically contact with the center of cornea, and the nylon filament was made to curve a little. […]
# The statistical significance for the drug effect was evaluated by confirming that P value is less than 5% in Student's t test between the intact group and the PBS group, and then carrying out Student's t test between the intact group and the present compound group. […]
# [4] = molecular target: T2, mouse semaphorin 3A (Sema3A) (Mus musculus, UniProt O08665); test: Inhibitory activity for the collapse activity caused by Sema3A (growth cone collapse assay, Test 1); type: cell-based; conditions: 1 μM test compound; chick embryo dorsal root ganglion; 3 units/mL mouse Sema3A; smaller value = more potent inhibition; read-out: residual ratio (%) of Sema3A activity (collapse assay)
# T2 sequence (O08665 21-772): T1 sequence (O08665 21-772)
# Procedure: Inhibitory Activity for the Collapse Activity Caused by Sema3A
# 96 well-plate (SUMITOMO BAKELITE CO., LTD.) which was beforehand coated with polylysine was further coated with laminin (10 μL laminin, at room temperature, for 1 hour). To each well was added 100 μL of a medium (F12 medium containing 10% fetal bovine serum, 20 ng/mL NGF, 100 unit/mL penicillin, and 100 μg/mL streptomycin). Dorsal root ganglion harvested from 7-8 day-old chick embryo was inoculated thereto, and the culture medium was cultivated under the condition of 5% CO2 and 37° C. for 16-20 hours. And then, each test compound in various concentrations was added to the medium, each test medium was cultivated for 30 minutes, 3 units/mL mouse semaphorin 3A (Sema3A) was added to each medium, and then each test medium was cultivated for more 30 minutes. Then, glutaraldehyde was added to the medium, in which the final concentration of glutaraldehyde was 1%. The medium was left to stand at room temperature for 15 minutes to make the tissue fragment fixed, and the ratio of the retracted growth cone was measured under a microscope.
Structure (SMILES),remaining activity at 100 µM [1] [%],also measured
"CN1CCN(C)C(COC(=O)c2c(O)c(O)cc3occ(-c4cn(C)c5cc(O)c(O)cc5c4=O)c(=O)c23)C1 (stereo not drawn) [Example 25, (1,4-Dimethylpiperazin-2-yl)methyl 3-(6,7-dihydroxy-1-methyl-4-oxo-1,4-dihydroquinolin-3-yl)-6,7-dihydroxy-4-oxo-4H-chromene-5-carboxylate hydrochloride]",90.5,
"Cn1ccnc1COC(=O)c1c(O)c(O)cc2occ(-c3cn(C)c4cc(O)c(O)cc4c3=O)c(=O)c12 [Example 26, (1-Methyl-1H-imidazol-2-yl)methyl 3-(6,7-dihydroxy-1-methyl-4-oxo-1,4-dihydroquinolin-3-yl)-6,7-dihydroxy-4-oxo-4H-chromene-5-carboxylate hydrochloride]",,remaining activity at 10 µM ([1]; 10 μM test compound (footnote *)): 97.8%
"Cn1cc(-c2coc3cc(O)c(O)c(C(=O)OCCOCCC(=O)O)c3c2=O)c(=O)c2cc(O)c(O)cc21 [Example 20, 3-[2-({[3-(6,7-Dihydroxy-1-methyl-4-oxo-1,4-dihydroquinolin-3-yl)-6,7-dihydroxy-4-oxo-4H-chromen-5-yl]carbonyl}oxy)ethoxy]propanoic acid]",56.5,
"Cn1cc(-c2coc3cc(O)c(O)c(C(=O)OCc4cn(CC(=O)N[C@@H](CCC(=O)O)C(=O)O)nn4)c3c2=O)c(=O)c2cc(O)c(O)cc21 [Example 3, N-({4-[({[3-(6,7-Dihydroxy-1-methyl-4-oxo-1,4-dihydroquinolin-3-yl)-6,7-dihydroxy-4-oxo-4H-chromen-5-yl]carbonyl}oxy)methyl]-1H-1,2,3-triazol-1-yl}acetyl)-L-glutamic acid]",,"therapeutic effect for corneal disorder caused by dry eye (fluorescein staining score 0-3) ([2]; 0.3% HA, 3% DQS, Example 3 ophthalmic solution, compared with intact group): potent therapeutic effect; improvement of corneal disorder compared with the vehicle-administration group (PBS) ([2]; ** denotes p<0.01): significant improvement; therapeutic effect for the dysfunction of corneal nerves (corneal perception, blink reflex, Cochet-Bonnet esthesiometer) [3]: marked therapeutic effect; remaining activity at 1 µM [4]: 4%"
"Cn1cc(-c2coc3cc(O)c(O)c(C(=O)OCCOCCC(=O)N[C@@H](CCC(=O)O)C(=O)O)c3c2=O)c(=O)c2cc(O)c(O)cc21 [Example 21, N-{3-[2-({[3-(6,7-Dihydroxy-1-methyl-4-oxo-1,4-dihydroquinolin-3-yl)-6,7-dihydroxy-4-oxo-4H-chromen-5-yl]carbonyl}oxy)ethoxy]propanoyl}-L-glutamic acid]",58.5,
"Cn1cc(-c2coc3cc(O)c(O)c(C(=O)OCCN4CCC(O)C4)c3c2=O)c(=O)c2cc(O)c(O)cc21 (stereo not drawn) [Example 28, 2-(3-Hydroxypyrrolidin-1-yl)ethyl 3-(6,7-dihydroxy-1-methyl-4-oxo-1,4-dihydroquinolin-3-yl)-6,7-dihydroxy-4-oxo-4H-chromene-5-carboxylate]",87.1,

# The next lines start with results.
remaining activity at 100 µM [1] [%],Structure (SMILES),also measured
62.1,"Cn1cc(-c2coc3cc(O)c(O)c(C(=O)OCCN(CC(=O)O)CC(=O)O)c3c2=O)c(=O)c2cc(O)c(O)cc21 [Example 22, 2,2′-{[2-({[3-(6,7-Dihydroxy-1-methyl-4-oxo-1,4-dihydroquinolin-3-yl)-6,7-dihydroxy-4-oxo-4H-chromen-5-yl]carbonyl}oxy)ethyl]imino}-di-acetic acid]",
49.3,"Cn1cc(-c2coc3cc(O)c(O)c(C(=O)OCCOCCOCCOCCOCCO)c3c2=O)c(=O)c2cc(O)c(O)cc21 [Example 29, 14-Hydroxy-3,6,9,12-tetraoxatetradec-1-yl 3-(6,7-dihydroxy-1-methyl-4-oxo-1,4-dihydroquinolin-3-yl)-6,7-dihydroxy-4-oxo-4H-chromene-5-carboxylate]",
69.4,"COC(=O)CCOCCOC(=O)c1c(O)c(O)cc2occ(-c3cn(C)c4cc(O)c(O)cc4c3=O)c(=O)c12 [Example 31, 2-(3-Methoxy-3-oxopropoxy)ethyl 3-(6,7-dihydroxy-1-methyl-4-oxo-1,4-dihydroquinolin-3-yl)-6,7-dihydroxy-4-oxo-4H-chromene-5-carboxylate]",
